In the supplement of paper PMC8612539:
Values after ≈ are worked out from the molar mass of the structure shown.

Tested on: Mannheimia haemolytica
Test: minimum inhibitory concentration (MIC)
Method: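 Broth microdilution MIC (Sensititre BOPO7F bovine plate, CLSI methods) of 19 antimicrobials against field isolates of P. multocida, M. haemolytica, H. somni (deep nasopharyngeal swabs) and E. coli, Enterococcus spp. (rectal swabs) from weaned dairy heifers. Incubation 16-24 h at 35 C. MIC is the lowest concentration preventing visible growth. Values with <= or > lie at the tested range limits. Trimethoprim-sulfamethoxazole is given as the trimethoprim component of a 1:19 mixture.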

CN1C[C@@H]2C[C@H]1CN2c1cc2c(cc1F)c(=O)c(C(=O)O)cn2C1CC1 [Danofloxacin]
Conditions	minimum inhibitory concentration [µg/mL]
isolate (source animal id): 8	0.5 (≈ 1.4 µM)
isolate (source animal id): 13	0.5 (≈ 1.4 µM)
isolate (source animal id): 18	0.5 (≈ 1.4 µM)
isolate (source animal id): 21	0.5 (≈ 1.4 µM)
isolate (source animal id): 25	0.5 (≈ 1.4 µM)
isolate (source animal id): 27	0.25 (≈ 0.7 µM)
isolate (source animal id): 28	> 1
isolate (source animal id): 30	0.5 (≈ 1.4 µM)
isolate (source animal id): 31	> 1
isolate (source animal id): 32	0.25 (≈ 0.7 µM)
isolate (source animal id): 34	0.5 (≈ 1.4 µM)
isolate (source animal id): 36	0.5 (≈ 1.4 µM)
isolate (source animal id): 37	0.5 (≈ 1.4 µM)
isolate (source animal id): 40	0.5 (≈ 1.4 µM)
isolate (source animal id): 41	0.5 (≈ 1.4 µM)
isolate (source animal id): 43	0.5 (≈ 1.4 µM)
isolate (source animal id): 46	0.5 (≈ 1.4 µM)
isolate (source animal id): 49	0.5 (≈ 1.4 µM)
isolate (source animal id): 50	0.5 (≈ 1.4 µM)
isolate (source animal id): 51	0.5 (≈ 1.4 µM)
isolate (source animal id): 52	0.5 (≈ 1.4 µM)
isolate (source animal id): 53	0.5 (≈ 1.4 µM)
isolate (source animal id): 55	0.5 (≈ 1.4 µM)
isolate (source animal id): 56	0.5 (≈ 1.4 µM)
isolate (source animal id): 57	> 1
isolate (source animal id): 100	> 1
isolate (source animal id): 103	0.5 (≈ 1.4 µM)
isolate (source animal id): 107	0.5 (≈ 1.4 µM)
isolate (source animal id): 108	0.5 (≈ 1.4 µM)
isolate (source animal id): 112	0.5 (≈ 1.4 µM)
isolate (source animal id): 113	> 1
isolate (source animal id): 121	0.5 (≈ 1.4 µM)
isolate (source animal id): 122	0.5 (≈ 1.4 µM)
isolate (source animal id): 123	> 1
isolate (source animal id): 126	> 1
isolate (source animal id): 133	> 1
isolate (source animal id): 135	> 1
isolate (source animal id): 138	> 1
isolate (source animal id): 141	> 1
isolate (source animal id): 142	> 1
isolate (source animal id): 145	> 1
isolate (source animal id): 149	≤ 0.12
isolate (source animal id): 151	≤ 0.12
isolate (source animal id): 152	> 1
isolate (source animal id): 154	≤ 0.12
isolate (source animal id): 159	> 1
isolate (source animal id): 162	> 1
isolate (source animal id): 170	≤ 0.12
isolate (source animal id): 171	≤ 0.12
isolate (source animal id): 172	≤ 0.12
isolate (source animal id): 173	≤ 0.12
isolate (source animal id): 179	≤ 0.12
isolate (source animal id): 180	≤ 0.12
isolate (source animal id): 183	≤ 0.12
isolate (source animal id): 186	≤ 0.12
isolate (source animal id): 187	≤ 0.12
isolate (source animal id): 188	≤ 0.12
isolate (source animal id): 190	≤ 0.12
isolate (source animal id): 191	≤ 0.12
isolate (source animal id): 192	≤ 0.12
isolate (source animal id): 201	≤ 0.12
isolate (source animal id): 202	≤ 0.12
isolate (source animal id): 209	≤ 0.12
isolate (source animal id): 211	≤ 0.12
isolate (source animal id): 220	≤ 0.12
isolate (source animal id): 221	≤ 0.12
isolate (source animal id): 223	≤ 0.12
isolate (source animal id): 233	> 1
isolate (source animal id): 237	> 1
isolate (source animal id): 241	> 1
isolate (source animal id): 252	0.25 (≈ 0.7 µM)
isolate (source animal id): 253	0.5 (≈ 1.4 µM)
isolate (source animal id): 259	> 1
isolate (source animal id): 260	0.5 (≈ 1.4 µM)
isolate (source animal id): 262	> 1
isolate (source animal id): 282	> 1
isolate (source animal id): 287	0.5 (≈ 1.4 µM)
isolate (source animal id): 288	≤ 0.12
isolate (source animal id): 291	≤ 0.12
isolate (source animal id): 293	0.5 (≈ 1.4 µM)
isolate (source animal id): 298	0.5 (≈ 1.4 µM)
isolate (source animal id): 299	0.5 (≈ 1.4 µM)
isolate (source animal id): 300	≤ 0.12
isolate (source animal id): 302	0.5 (≈ 1.4 µM)
isolate (source animal id): 304	0.5 (≈ 1.4 µM)
isolate (source animal id): 306	≤ 0.12
isolate (source animal id): 308	≤ 0.12
isolate (source animal id): 309	≤ 0.12
isolate (source animal id): 313	0.5 (≈ 1.4 µM)
isolate (source animal id): 318	0.25 (≈ 0.7 µM)
isolate (source animal id): 320	≤ 0.12
isolate (source animal id): 321	0.5 (≈ 1.4 µM)
isolate (source animal id): 323	0.5 (≈ 1.4 µM)
isolate (source animal id): 324	0.5 (≈ 1.4 µM)
isolate (source animal id): 326	0.5 (≈ 1.4 µM)
isolate (source animal id): 328	0.5 (≈ 1.4 µM)
isolate (source animal id): 329	0.5 (≈ 1.4 µM)
isolate (source animal id): 333	0.5 (≈ 1.4 µM)
isolate (source animal id): 335	0.5 (≈ 1.4 µM)
isolate (source animal id): 338	0.5 (≈ 1.4 µM)
